According to EP1210948B1, “THERAPEUTC PEPTIDE FOR NERVOUS DISEASES” (NIPPON CHEMIPHAR CO., LTD., priority 1999, dated 2007):
Where a SMILES comes first, the peptide text is derived from it.

What was measured:
[1] = Toxicity test, subcutaneous injection; type: in vivo
Protocol: pGlu-Asn-Ser-Pro-Arg-Gly-NH2 acetate was subcutaneously injected to a SD strain rat at a dose of 1 mg/kg.

[2] = tested on: cells of rat cerebral cortex; assay: Action on glutamate-induced neurocyte disorder (in vitro), propidium iodide staining; type: cell-based; conditions: for inhibitory action against neuronal death induced by glutamate: 4 day treatment, glutamate 1 mM
Protocol: The cerebral cortex of rat (0-day-old) was incubated at 37°C in a Hank's solution containing 1.5 mg/mL of dispase, and then cells were isolated. The neurocytes were dispersed on a poly-L-lysine-coated multiple well plate at a density of approx. 4 x 10^4 cells/cm^2, and then to the plate was added cytosine-β-arabinofuranoside (20 µM). The nerocytes were cultured on the plate for 4 days.
The nerocytes were identified by indirect fluorescent method using a neuro-filament antibody
The cultured neurocytes were washed with a Hank's solution and further incubated at 37°C for 30 minutes under atmospheric conditions. Incubated neurocytes were again incubated for 10 minutes in a Hank's solution containing glutamate. Then, they were washed, and further incubated for one hour. At 15 minutes before the incubation was complete, propidium iodide (4.6 µg/mL) was added. After the incubations were complete, the incubated neurocytes were washed with PBS (phosphate buffer solution containing sodium chloride), and then observed using fluorescence microscope.
The pGlu-Asn-Ser-Pro-Arg-Gly-NH2 acetate or AVP(4-9) was added to the 4 day-cultured solution prior to the glutamate treatment.

For `N=C(N)NCCC[C@H](NC(=O)[C@@H]1CCCN1C(=O)[C@H](CO)NC(=O)[C@H](CC(N)=O)NC(=O)[C@@H]1CCC(=O)N1)C(=O)NCC(N)=O` [pGlu-Asn-Ser-Pro-Arg-Gly-NH2 acetate] (HELM PEPTIDE1{[Glp].N.S.P.R.G.[am]}$$$$V2.0), the “changes observed after subcutaneous injection” value ([1]; rat, in vivo, sc, 1 mg/kg) was “No noticeable changes were observed”, the “inhibitory action against neuronal death induced by glutamate” value ([2]; 0.1 nM test substance) was “showed an inhibitory action” and the “inhibitory action against neuronal death induced by glutamate” value ([2]; 1 nM test substance) was “showed an inhibitory action”. The “inhibitory action against glutamate toxicity in the presence of V1 receptor antagonist [Pmp^1, Tyr(Me)^2]AVP” value ([2]; [Pmp^1, Tyr(Me)^2]AVP 0.1 nM) was “reduced” and the “inhibitory action against glutamate toxicity in the presence of V1 receptor antagonist [Pmp^1, Tyr(Me)^2]AVP” value ([2]; [Pmp^1, Tyr(Me)^2]AVP 1 nM) was “reduced”.

For `N=C(N)NCCC[C@H](NC(=O)[C@@H]1CCCN1C(=O)[C@H](CO)NC(=O)[C@H](CC(N)=O)NC(=O)[C@@H]1CCC(=O)N1)C(=O)NCC(N)=O` [pGlu-Asn-Ser-Pro-Arg-Gly-NH2] (HELM PEPTIDE1{[Glp].N.S.P.R.G.[am]}$$$$V2.0), the “toxicity in the conventional toxicity test” value ([1]; summary statement) was “no specific toxicity”.

With “[pGlu^4, Cyt^5] AVP (4-9) [AVP(4-9), reference compound]” the “inhibition of the glutamate-induced neuronal death” value ([2]; 1 µM test substance) was “inhibited” and the “inhibition of the glutamate-induced neuronal death” value ([2]; 10 µM test substance) was “inhibited”.
